Activity calls are given as the source filed them.
Legend:
Format in all cases: functional, cell-based
SW-620 = assay: Growth inhibition of human SW620 cells at 10 uM after 48 hrs by sulforhodamine B assay
HL-60(TB) = assay: Growth inhibition of human HL-60(TB) cells at 10 uM after 48 hrs by sulforhodamine B assay
HOP-92 = assay: Growth inhibition of human HOP92 cells at 10 uM after 48 hrs by sulforhodamine B assay
RXF 393 = assay: Growth inhibition of human RXF393 cells at 10 uM after 48 hrs by sulforhodamine B assay
MDA-MB-468 = assay: Growth inhibition of human MDA-MB-468 cells at 10 uM after 48 hrs by sulforhodamine B assay
Hs-578T = assay: Growth inhibition of human Hs 578T cells at 10 uM after 48 hrs by sulforhodamine B assay
A498 = assay: Growth inhibition of human A498 cells at 10 uM after 48 hrs by sulforhodamine B assay
SF-539 = assay: Growth inhibition of human SF539 cells at 10 uM after 48 hrs by sulforhodamine B assay
HCC 2998 = assay: Growth inhibition of human HCC2998 cells at 10 uM after 48 hrs by sulforhodamine B assay
SNB-19 = assay: Growth inhibition of human SNB19 cells at 10 uM after 48 hrs by sulforhodamine B assay
KM12 = assay: Growth inhibition of human KM12 cells at 10 uM after 48 hrs by sulforhodamine B assay
SF-268 = assay: Growth inhibition of human SF268 cells at 10 uM after 48 hrs by sulforhodamine B assay
NCI-H226 = assay: Growth inhibition of human NCI-H226 cells at 10 uM after 48 hrs by sulforhodamine B assay
M14 = assay: Growth inhibition of human M14 cells at 10 uM after 48 hrs by sulforhodamine B assay
UO-31 = assay: Growth inhibition of human UO31 cells at 10 uM after 48 hrs by sulforhodamine B assay
TK-10 = assay: Growth inhibition of human TK10 cells at 10 uM after 48 hrs by sulforhodamine B assay
DU-145 = assay: Growth inhibition of human DU145 cells at 10 uM after 48 hrs by sulforhodamine B assay
U-251 = assay: Growth inhibition of human U251 cells at 10 uM after 48 hrs by sulforhodamine B assay
SNB-75 = assay: Growth inhibition of human SNB75 cells at 10 uM after 48 hrs by sulforhodamine B assay
OVCAR-3 = assay: Growth inhibition of human OVCAR3 cells at 10 uM after 48 hrs by sulforhodamine B assay
MDA-MB-231 = assay: Growth inhibition of human MDA-MB-231 cells at 10 uM after 48 hrs by sulforhodamine B assay
PC-3 = assay: Growth inhibition of human PC3 cells at 10 uM after 48 hrs by sulforhodamine B assay
SN12C = assay: Growth inhibition of human SN12C cells at 10 uM after 48 hrs by sulforhodamine B assay
786-0 = assay: Growth inhibition of human 786-0 cells at 10 uM after 48 hrs by sulforhodamine B assay
LOX IMVI = assay: Growth inhibition of human LOXIMVI cells at 10 uM after 48 hrs by sulforhodamine B assay
SK-MEL-5 = assay: Growth inhibition of human SK-MEL-5 cells at 10 uM after 48 hrs by sulforhodamine B assay
Malme-3M = assay: Growth inhibition of human MALME-3M cells at 10 uM after 48 hrs by sulforhodamine B assay
OVCAR-5 = assay: Growth inhibition of human OVCAR5 cells at 10 uM after 48 hrs by sulforhodamine B assay
A549 = assay: Growth inhibition of human A549/ATCC cells at 10 uM after 48 hrs by sulforhodamine B assay
K562 = assay: Growth inhibition of human K562 cells at 10 uM after 48 hrs by sulforhodamine B assay
COLO 205 = assay: Growth inhibition of human COLO205 cells at 10 uM after 48 hrs by sulforhodamine B assay
HOP-62 = assay: Growth inhibition of human HOP62 cells at 10 uM after 48 hrs by sulforhodamine B assay
HT-29 = assay: Growth inhibition of human HT-29 cells at 10 uM after 48 hrs by sulforhodamine B assay
CCRF-CEM = assay: Growth inhibition of human CCRF-CEM cells at 10 uM after 48 hrs by sulforhodamine B assay
NCI/ADR-RES = assay: Growth inhibition of human NCI-ADR-RES cells at 10 uM after 48 hrs by sulforhodamine B assay
OVCAR-4 = assay: Growth inhibition of human OVCAR4 cells at 10 uM after 48 hrs by sulforhodamine B assay
T47D = assay: Growth inhibition of human T47D cells at 10 uM after 48 hrs by sulforhodamine B assay
HCT-15 = assay: Growth inhibition of human HCT15 cells at 10 uM after 48 hrs by sulforhodamine B assay
BT-549 = assay: Growth inhibition of human BT549 cells at 10 uM after 48 hrs by sulforhodamine B assay
MCF7 = assay: Growth inhibition of human MCF7 cells at 10 uM after 48 hrs by sulforhodamine B assay
MDA-MB-435 = assay: Growth inhibition of human MDA-MB-435 cells at 10 uM after 48 hrs by sulforhodamine B assay
ACHN = assay: Growth inhibition of human ACHN cells at 10 uM after 48 hrs by sulforhodamine B assay
RPMI-8226 = assay: Growth inhibition of human RPMI8226 cells at 10 uM after 48 hrs by sulforhodamine B assay
SK-MEL-2 = assay: Growth inhibition of human SK-MEL-2 cells at 10 uM after 48 hrs by sulforhodamine B assay
NCI-H23 = assay: Growth inhibition of human NCI-H23 cells at 10 uM after 48 hrs by sulforhodamine B assay
NCI-H322M = assay: Growth inhibition of human NCI-H322M cells at 10 uM after 48 hrs by sulforhodamine B assay
SK-MEL-28 = assay: Growth inhibition of human SK-MEL-28 cells at 10 uM after 48 hrs by sulforhodamine B assay
IGROV-1 = assay: Growth inhibition of human IGROV1 cells at 10 uM after 48 hrs by sulforhodamine B assay
CAKI-1 = assay: Growth inhibition of human CAKI-1 cells at 10 uM after 48 hrs by sulforhodamine B assay
SK-OV-3 = assay: Growth inhibition of human SKOV3 cells at 10 uM after 48 hrs by sulforhodamine B assay
EKVX = assay: Growth inhibition of human EKVX cells at 10 uM after 48 hrs by sulforhodamine B assay
SR = assay: Growth inhibition of human SR cells at 10 uM after 48 hrs by sulforhodamine B assay
NCI-H460 = assay: Growth inhibition of human NCI-H460 cells at 10 uM after 48 hrs by sulforhodamine B assay
OVCAR-8 = assay: Growth inhibition of human OVCAR8 cells at 10 uM after 48 hrs by sulforhodamine B assay
MOLT-4 = assay: Growth inhibition of human MOLT4 cells at 10 uM after 48 hrs by sulforhodamine B assay
UACC-62 = assay: Growth inhibition of human UACC62 cells at 10 uM after 48 hrs by sulforhodamine B assay
NCI-H522 = assay: Growth inhibition of human NCI-H522 cells at 10 uM after 48 hrs by sulforhodamine B assay
HCT-116 = assay: Growth inhibition of human HCT116 cells at 10 uM after 48 hrs by sulforhodamine B assay
SF-295 = assay: Growth inhibition of human SF295 cells at 10 uM after 48 hrs by sulforhodamine B assay

Measured: growth inhibition (GI)

O=C1/C(=C\c2cccn2C(=O)c2ccc(Cl)s2)c2ccccc2N1c1c(Cl)cccc1Cl
inactive: SW-620 | HL-60(TB) | HOP-92 | RXF 393 | MDA-MB-468 | Hs-578T | A498 | SF-539 | HCC 2998 | SNB-19 | KM12 | SF-268 | NCI-H226 | M14 | UO-31 | TK-10 | DU-145 | U-251 | SNB-75 | OVCAR-3 | MDA-MB-231 | PC-3 | SN12C | 786-0 | LOX IMVI | SK-MEL-5 | Malme-3M | OVCAR-5 | A549 | K562 | COLO 205 | HOP-62 | HT-29 | CCRF-CEM | NCI/ADR-RES | OVCAR-4 | T47D | HCT-15 | BT-549 | MCF7 | MDA-MB-435 | ACHN | RPMI-8226 | SK-MEL-2 | NCI-H23 | NCI-H322M | SK-MEL-28 | IGROV-1 | CAKI-1 | SK-OV-3 | EKVX | SR | NCI-H460 | OVCAR-8 | MOLT-4 | UACC-62 | NCI-H522 | HCT-116 | SF-295

O=C1/C(=C\c2cccn2Cc2ccc(Cl)cc2)c2ccccc2N1c1c(Cl)cccc1Cl
inactive: SW-620 | HL-60(TB) | HOP-92 | RXF 393 | MDA-MB-468 | Hs-578T | A498 | SF-539 | HCC 2998 | SNB-19 | KM12 | SF-268 | NCI-H226 | M14 | UO-31 | TK-10 | DU-145 | U-251 | SNB-75 | OVCAR-3 | MDA-MB-231 | PC-3 | SN12C | 786-0 | LOX IMVI | SK-MEL-5 | Malme-3M | OVCAR-5 | A549 | K562 | COLO 205 | HOP-62 | HT-29 | CCRF-CEM | NCI/ADR-RES | OVCAR-4 | T47D | HCT-15 | BT-549 | MCF7 | MDA-MB-435 | ACHN | RPMI-8226 | SK-MEL-2 | NCI-H23 | NCI-H322M | SK-MEL-28 | IGROV-1 | CAKI-1 | SK-OV-3 | EKVX | SR | NCI-H460 | OVCAR-8 | MOLT-4 | UACC-62 | NCI-H522 | HCT-116 | SF-295
